Experimental data taken from patent publication US8933232B2, “1,3,4-oxadiazole and 1,3,4-thiadiazole beta-lactamase inhibitors” (priority 2012, dated 2015).
Counter-ions that a name gives are not always drawn.

System: bacterial strains that express KPC β-lactamases
Test: Synergy MIC / standard BLI potentiation MIC assay against strains expressing KPC β-lactamases
Assay type: cell-based
Settings: in the presence of a β-lactam; comparator Avibactam
In short: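 Broth microdilution per modified CLSI M07-A9 in CAMHB, ~10^5 CFU/mL, 18-20 h at 37 °C with aeration; engineered E. coli carrying cloned β-lactamase plasmids kept in 25 μg/mL tetracycline. β-Lactam MIC read with BLI fixed at 4 μg/mL, or BLI serially diluted against fixed β-lactam; MIC = lowest concentration without visible turbidity.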

| Structure (SMILES) | more active than Avibactam for at least one bacterial strain that expresses KPC β-lactamase and/or better spectrum of activity against KPC strains |
| --- | --- |
| O=C1N2C[C@@H](CC[C@H]2c2nnco2)N1OS(=O)(=O)O [Compound 701, (2S,5R)-2-(1,3,4-oxadiazol-2-yl)-7-oxo-1,6-diazabicyclo[3.2.1]octan-6-yl hydrogen sulfate] | more active than Avibactam |
| NCCCCc1nnc([C@@H]2CC[C@@H]3CN2C(=O)N3OS(=O)(=O)O)o1 [Compound 735, (2S,5R)-2-(5-(4-aminobutyl)-1,3,4-oxadiazol-2-yl)-7-oxo-1,6-diazabicyclo[3.2.1]octan-6-yl hydrogen sulfate] | more active than Avibactam |
| NCCCc1nnc([C@@H]2CC[C@@H]3CN2C(=O)N3OS(=O)(=O)O)o1 [Compound 720, (2S,5R)-2-(5-(3-aminopropyl)-1,3,4-oxadiazol-2-yl)-7-oxo-1,6-diazabicyclo[3.2.1]octan-6-yl hydrogen sulfate] | more active than Avibactam |
| N[C@H]1C[C@H](c2nnc([C@@H]3CC[C@@H]4CN3C(=O)N4OS(=O)(=O)O)o2)C1 [Compound 727, (2S,5R)-2-(5-((1r,3S)-3-aminocyclobutyl)-1,3,4-oxadiazol-2-yl)-7-oxo-1,6-diazabicyclo[3.2.1]octan-6-yl hydrogen sulfate] | more active than Avibactam |
| O=C1N2C[C@@H](CC[C@H]2c2nnc([C@H]3CCNC3)o2)N1OS(=O)(=O)O [Compound 758, (2S,5R)-7-oxo-2-(5-((S)-pyrrolidin-3-yl)-1,3,4-oxadiazol-2-yl)-1,6-diazabicyclo[3.2.1]octan-6-yl hydrogen sulfate] | more active than Avibactam |
| O=C1N2C[C@@H](CC[C@H]2c2nnc(CNC3CNC3)o2)N1OS(=O)(=O)O [Compound 726, (2S,5R)-2-(5-((azetidin-3-ylamino)methyl)-1,3,4-oxadiazol-2-yl)-7-oxo-1,6-diazabicyclo[3.2.1]octan-6-yl hydrogen sulfate] | more active than Avibactam |
| N=C(N)NCc1nnc([C@@H]2CC[C@@H]3CN2C(=O)N3OS(=O)(=O)O)s1 [Compound 721, (2S,5R)-2-(5-(guanidinomethyl)-1,3,4-thiadiazol-2-yl)-7-oxo-1,6-diazabicyclo[3.2.1]octan-6-yl hydrogen sulfate] | more active than Avibactam |
| O=C1N2C[C@@H](CC[C@H]2c2nnc(C3CC4(CNC4)C3)o2)N1OS(=O)(=O)O [Compound 750, (2S,5R)-2-(5-(2-azaspiro[3.3]heptan-6-yl)-1,3,4-oxadiazol-2-yl)-7-oxo-1,6-diazabicyclo[3.2.1]octan-6-yl hydrogen sulfate] | more active than Avibactam |
| C[n+]1ccc(-c2nnc([C@@H]3CC[C@@H]4CN3C(=O)N4OS(=O)(=O)[O-])o2)cc1 [Compound 782, (2S,5R)-2-(5-(1-methylpyridin-1-ium-4-yl)-1,3,4-oxadiazol-2-yl)-7-oxo-1,6-diazabicyclo[3.2.1]octan-6-yl sulfate] | more active than Avibactam |
| N[C@H]1CN[C@@H](c2nnc([C@@H]3CC[C@@H]4CN3C(=O)N4OS(=O)(=O)O)o2)C1 [Compound 761, (2S,5R)-2-(5-((2R,4R)-4-aminopyrrolidin-2-yl)-1,3,4-oxadiazol-2-yl)-7-oxo-1,6-diazabicyclo[3.2.1]octan-6-yl hydrogen sulfate] | more active than Avibactam |
